Several values for one entry are separate records, joined by “and”; a condition that tells them apart may be missing. Equal entries are not always repeated. Where two headings read alike, the source gives them in different places.

One assay concerns the target T1, PYR1^4F-M (Arabidopsis thaliana, UniProt O49686, A160G/F159V/H115Q/H60P/N90S/Y120G).
T1 construct: made in house; host or cells: E. coli
As to the kind of experiment: PYR1 ELISA-like plate assay, immobilized PYR1^4F-M with biotinylated ΔN-HAB1^T+. Format: binding. Conditions: PYR1^4F-M ELISA-like format. How it is done:
PYR1 was immobilized overnight in clear plates, blocked with KPL milk diluent in buffer CBS ^17 (CBSM). All binding reactions were performed using CBSM. Detection was performed via binding a streptavidin-HRP conjugate to biotinylated ΔN-HAB1^T+ followed by incubation with a commercial TMB reagent. Lower limits of detection (LODs) were determined by linear regression of the response data in the low linear range using the formula LOD=3σy/m, where m is the slope of the response line and σy is the standard error of the y intercept using data combined from biological replicates.
Unconjugated 6×His-MBP-PYR1 variants were immobilized to Microlon clear plates (655081) using 100 μL of CBS without pH modification, at a protein concentration of 100 μg mL^−1, or 1.57 AM at 4° C. overnight. Wells assigned as no PYR controls received only CBS. Plates were sealed using Microseal B adhesive sealers (BioRad MSB-1001). […] The pellet was stored on ice until the blocked and washed plates were ready to receive the binding reactions. ΔN-HAB1^T+ was exchanged into CBSM with 1 mM DTT and 1 mM TCEP (CBSM++) using Zeba™ spin desalting columns (Thermo) were equilibrated with CBSM++. ΔN-HAB1^T+ was diluted to 10× the final binding reaction concentration and was immediately added to the pre-assembled assays in PCR plates, which were mixed by pipetting and transferred to the washed, blocked Microlon plates. […]

Assay [1] has as its system PYR1 mutant receptors (ligand-dependent binding to HAB1). Description: Yeast two-hybrid screens and optimization for organophosphate sensors. Format: cell-based, Arabidopsis. The note with it: after four rounds of recombination-based mutagenesis (PYR1^DIAZI, PYR1^PIRI). How it is done:
Surviving cells were collected and used in subsequent positive selections for ligand-responsive receptors on SD,-Leu,-Trp,-Ura media supplemented with a specific test chemical (100 μM) for responsiveness to any of the 10-member panel of organophosphate compounds: diazinon, pirimiphos-methyl, azinphos-ethyl, dimethoate, chlorfenvinphos, disulfoton, parathion-methyl, bromophos-methyl, malathion, and monocrotophos; all compounds were purchased form (Sigma-Aldrich). Isolated colonies were tested by regrowth on ligand-containing media and by dose response using X-gal staining and Sanger sequenced (see FIG. 13a-d).
Recombination-based mutagenesis of hit receptors was used to generate subsequent molecular diversity for selection-based optimization experiments, using the same general strategy across all scaffolds utilized. […] The resulting shuffled DNA fragments were cloned into pBD, transformed into E. coli, colonies collected, and plasmids extracted.

Another assay has as its target T2, PYR1^DIAZI (Arabidopsis thaliana, UniProt O49686, A160V/E8G/F108Y/F159G/L87M/M158V/V81Y).
T2 construct: expressed in transfected cells; host or cells: S. cerevisiae (2µ plasmid)
T2 sequence (O49686 1-191 E8G/V81Y/L87M/F108Y/M158V/F159G/A160V): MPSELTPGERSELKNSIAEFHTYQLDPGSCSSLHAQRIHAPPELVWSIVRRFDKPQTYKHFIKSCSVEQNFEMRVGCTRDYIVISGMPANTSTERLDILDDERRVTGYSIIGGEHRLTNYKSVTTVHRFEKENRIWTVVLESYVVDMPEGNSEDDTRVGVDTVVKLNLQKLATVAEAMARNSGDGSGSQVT
T2 sequence (Q9CAJ0 178-511 partner): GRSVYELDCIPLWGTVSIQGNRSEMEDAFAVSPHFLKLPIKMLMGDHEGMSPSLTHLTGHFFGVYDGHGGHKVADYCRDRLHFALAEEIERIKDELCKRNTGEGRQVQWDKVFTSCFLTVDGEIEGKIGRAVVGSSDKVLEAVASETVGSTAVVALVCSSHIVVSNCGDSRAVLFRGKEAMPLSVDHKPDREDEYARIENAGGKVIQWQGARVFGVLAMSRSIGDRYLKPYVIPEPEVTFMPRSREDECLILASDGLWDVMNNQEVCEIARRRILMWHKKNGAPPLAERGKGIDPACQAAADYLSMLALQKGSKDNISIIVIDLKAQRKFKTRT
As to the kind of experiment: cell-based. Conditions: for Bottom: fit bottom of GFP fluorescence response; for Top: fit top of GFP fluorescence response. The text has this: (§1) PYR1 variants were used to drive gene expression in an inducible genetic circuit by fusing a zinc finger DNA binding domain (Z4^32) to the N-terminus of PYR1, and the VP64 activation domain 33 to the N-terminus of ΔN-HAB1. The SV40 nuclear localization signal was also fused to the N-terminus of PYR1. A single 2u plasmid was used to express SV40-Z4DBD-PYR1 and VP64-HAB1, while the GFP expression cassette (Z44-CYCcore-GFP-CYC 1term) was integrated at the YPRCΔ15 site on chromosome XVI. GFP fluorescence induced by each circuit was measured 12 h after ligand addition to 1 mL cultures, 30° C. Fluorescence was measured by flow cytometry. Briefly, 50 μL of resuspended cells were transferred to a 96-well plate for analysis. The fluorescence intensity of each cell was measured using a BD Accuri C6 flow cytometer equipped with auto-loading. The forward scatter, side scatter, and GFP fluorescence (Ex/Em 488/533 nm) were recorded for a minimum of 10,000 events.
(§2) Transformed yeast cells were acquired by first inoculating 5 mL of liquid media and incubating in a shaker incubator overnight at 30° C. Cells from the overnight culture were then used to inoculate a 50 mL culture with an initial cell density of 5×10^6 cells/mL. This culture was grown at 30° C. with 200 rpm shaking until ~2×10^7 cells/mL were produced, approximately 3 to 5 hours. Cells were harvested by centrifugation at 4000 rpm for 5 min, washed with 25 mL sterile, deionized water, resuspended in 1 mL of 100 mM LiAc, and transferred to a 1.5 mL tube, producing a cell suspension with approximately 10^9 cells/mL. The cell suspension was briefly mixed by vortexing and 100 μL was transferred into a clean 1.5 mL tube for each transformation. Cells were pelleted at 13000 rpm for 15 sec and the supernatant was removed. A transformation mixture of 240 μL PEG (50% w/v), 36 μL 1.0 M LiAc, 50 μL salmon sperm DNA (2.0 mg/ml), plasmid, and sterile water were added to the cell pellet and mixed by vortexing for 1 min (total volume of 360 μL). The mixed transformation solution was then heat shocked at 42° C. for 40 min. Post heat-shock, cells were recovered by centrifugation at 8000 rpm for 30 sec. Cells resuspended in 400 μL sterile water were plated on appropriate selection media, in this case agar-SD media without uracil. Plates were incubated at 30° C. until mature colonies were formed.
(§3) Three single transformants were picked from selection plates, inoculated in 2 mL of SD-Ura containing 2% glucose in 14 mL culture tubes. After 24 hours of growth at 30° C. in a shaker incubator (200 rpm), the OD600 of each sample was measured and cultures were back diluted to OD600=0.2 in fresh SD-Ura, the total volume of diluted culture was 9 mL. Each 9 mL culture was separated into 8 unique cultures by transferring 1 mL into 8 different wells of a 96 deep-well plate. Each well was used to evaluate the effect of a specific concentration of ligand. After all the cultures were transferred, 1 μL of stock ligand solution (each stock varying in concentration) was added to each well. The plate was sealed with an air-breathable polymer film and cultured with 1000 rpm shaking at 30° C. for 12 hours. Shaker humidity was maintained at 90%. Cells were harvested by centrifuge at 5000 g for 10 min, and after discarding the supernatant, the cells were suspended in 1 mL PBS buffer and centrifuged at 5000 g for 10 min. The cells were washed with 1 mL PBS buffer twice and resuspended in 1 mL DI water for flow cytometry analysis. For flow cytometry analysis, 50 μL of resuspended cells were transferred to a 96-well plate with flat bottom, adding DI water up to final volume 200 μL. The fluorescence intensity of cells within each sample was measured using a BD Accuri C6 flow cytometer equipped with auto-loading from 96 well plates. The forward scatter, side scatter, and GFP fluorescence (Ex/Em 488/533 nm) were recorded for a minimum of 10,000 events.

Another assay has as its target T3, PYR1^PIRI (Arabidopsis thaliana, UniProt O49686, A160T/E130G/F159T/K59R/N119S/S122Q/S92M/V174A).
T3 construct: expressed in transfected cells; host or cells: S. cerevisiae (2µ plasmid)
T3 sequence (O49686 1-191 K59R/S92M/N119S/S122Q/E130G/F159T/A160T/V174A): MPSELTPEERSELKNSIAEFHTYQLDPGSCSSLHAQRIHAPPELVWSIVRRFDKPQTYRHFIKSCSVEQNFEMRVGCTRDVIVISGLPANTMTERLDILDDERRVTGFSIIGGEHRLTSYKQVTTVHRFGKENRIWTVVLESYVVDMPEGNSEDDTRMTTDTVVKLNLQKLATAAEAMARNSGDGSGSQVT
T3 sequence (Q9CAJ0 178-511 partner): T2 sequence (Q9CAJ0 178-511 partner)
As to the kind of experiment: cell-based. The note with it: for Bottom: fit bottom of GFP fluorescence response; for Top: fit top of GFP fluorescence response.
Text: as §1, §2, §3

Another assay deals with HAB1. As to the kind of experiment: Y2H X-gal staining of evolved sensors: ligand responsiveness and cross reaction. Format: cell-based, Arabidopsis. Conditions: ligands WIN 55,212-2, 4F-MDMB-BUTINACA, AB-PINACA, JWH-072; PYR1^JWH-072 to low μM WIN 55,212-2, PYR1^4F to low μM AB-PINACA. How it is done: High-affinity sensors were tested for cross reaction using both Y2H and in vitro PP2C assays. […] Similar methods were used to characterize PYR1^PIRI and PYR1^WIN sensor selectivity and sensitivity.
The PYL2 coding sequence cloned in the Y2H pBD vector was used as template to incorporate the corresponding PYR1^WIN and PYR1^4F homologous residues via site directed mutagenesis using the QuikChange Lightning Multi Site-Directed mutagenesis kit (Agilent Technologies). Resulting clones PYL2^WIN (K64Q, F165A, V1661) and PYL2^4F (H119Q, Y124G, F165V, V166G) were sequence confirmed and incorporated into MAV99 harboring pACT-HAB1 and tested for ligand activation using uracil-independent growth and X-gal staining experiments. The same method was used to generate a PYL2^WIN version in a protein expression vector for crystallization studies.

T1 sequence (O49686 whole entry H60P/N90S/H115Q/Y120G/F159V/A160G, other chains not shown): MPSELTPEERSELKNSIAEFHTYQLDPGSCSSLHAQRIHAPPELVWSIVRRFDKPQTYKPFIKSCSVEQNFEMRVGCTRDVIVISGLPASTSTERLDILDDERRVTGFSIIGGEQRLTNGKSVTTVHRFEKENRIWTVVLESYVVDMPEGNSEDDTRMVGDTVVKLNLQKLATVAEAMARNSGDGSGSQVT

Turning to `COC(=O)[C@@H](NC(=O)c1nn(CCCCF)c2ccccc12)C(C)(C)C` [4F-MDMB, 4F-MDMB-BUTINACA], at PYR1^4F-M, the “average LOD from two biological replicates” value was 6 nM and 2.2 ng/ml.
One may read the EC50 as the midpoint of the concentration-response curve. With `CCOP(=S)(OCC)Oc1cc(C)nc(C(C)C)n1` [Diazinon, diazinon], in assay [1], the “ligand concentration to which optimized sensors respond” value amounted to 10 nM. For the same compound, the Bottom at PYR1^DIAZI (PYR1-DIAZI) stood at 17196; on PYR1^PIRI (PYR1-PIRI) it was 19123. Besides, the Top on PYR1^DIAZI (PYR1-DIAZI) stood at 103999; on PYR1^PIRI (PYR1-PIRI), 109997. The EC50 on PYR1^DIAZI (PYR1-DIAZI, no unit in table (text b82 gives the same values in nM), read-out: EC50) was determined as 43.1 nM; at PYR1^DIAZI (PYR1^DIAZI, yeast-transcription circuit, read-out: EC50), 43 nM; at PYR1^PIRI (PYR1-PIRI, no unit in table (text b82 gives the same values in nM/μM), read-out: EC50), 1010 nM; on PYR1^PIRI (PYR1^PIRI, yeast-transcription circuit, strongest off-target response, read-out: EC50), 1000 nM. For the same compound, the “EC50 to diazinon lower than all other molecules profiled” value at PYR1^DIAZI (PYR1^DIAZI, selectivity versus panel of chemically similar organophosphates) is “greater than 10 fold”. The “EC50 higher than that with pirimiphos” value at PYR1^PIRI (PYR1^PIRI, off-target diazinon versus pirimiphos) stood at 50 fold.
As to `CCN(CC)c1nc(C)cc(OP(=S)(OC)OC)n1` [Pirimiphos, pirimiphos-methyl], the “ligand concentration to which optimized sensors respond” value in assay [1] is listed as 10 nM. In addition, the EC50 at PYR1^DIAZI amounted to 17400 nM; at PYR1^PIRI, 20 nM. In addition, the Bottom on PYR1^DIAZI (PYR1-DIAZI) came to 14673; at PYR1^PIRI (PYR1-PIRI), 12745. Further, the values for the Top at PYR1^DIAZI (PYR1-DIAZI) and at PYR1^PIRI (PYR1-PIRI) were 88148 and 105951, respectively.
“PYR1^JWH-072: PYR1 variant sensor for JWH-072; cannabinoid receptor sequence (MPSGLTPEERSELKNSIAEFHTYQLDPGSCSSLHAQRIHAPPELVWSIVRRFDKPQTYN)”: the “cross-reactivity to off-target cannabinoid ligands” value with HAB1 is listed as “modest cross-reactivity”.

The values above are taken from patent US20260258397A1, “REAGENTS AND SYSTEMS FOR […]” (priority 2023, published 2026).
